According to ChEMBL document CHEMBL3860077, “Synthesis and pharmacological evaluation of conformationally constrained glutamic acid higher homologues” (Bioorg Med Chem, 2016):

Assays:
[1] = Displacement of [3H]-KAIN from kainic acid receptor in Sprague-Dawley rat brain synaptic membranes after 60 mins by scintillation counting method
[2] = Displacement of [3H]-AMPA from AMPA receptor in Sprague-Dawley rat brain synaptic membranes after 30 mins by scintillation counting method
Glutamate NMDA receptor = test: Displacement of [3H]-CGP39653 from NMDA receptor in Sprague-Dawley rat brain synaptic membranes after 60 mins by scintillation counting method
[3] = Displacement of [3H]-AMPA from AMPA receptor in rat cortical membranes by scintillation counting method; format: cell membranes
[4] = Displacement of [3H]-KAIN from kainic acid receptor in rat cortical membranes by scintillation counting method; format: cell membranes

| Structure (SMILES) | IC50 [1] | IC50 [2] | Ki (Glutamate NMDA receptor) | IC50 [3] | IC50 [4] | pKi (Glutamate NMDA receptor) |
| --- | --- | --- | --- | --- | --- | --- |
| N[C@@H](C[C@@H]1CC(c2ccc(C(=O)O)cc2)=NO1)C(=O)O (racemic) | > 100 µM | > 100 µM | > 100 µM | – | – | – |
| N[C@@H](C[C@@H]1CC(C(=O)O)=NO1)C(=O)O (racemic) | – | – | – | > 100 µM | > 100 µM | – |
| N[C@@H](C[C@H]1CC(CCC(=O)O)=NO1)C(=O)O (racemic) | > 100 µM | > 100 µM | > 100 µM | – | – | – |
| N[C@@H](C[C@H]1CC(c2ccc(C(=O)O)cc2)=NO1)C(=O)O (racemic) | > 100 µM | > 100 µM | > 100 µM | – | – | – |
| N[C@@H](C[C@H]1CC(c2ccccc2C(=O)O)=NO1)C(=O)O (racemic) | > 100 µM | > 100 µM | 22 µM | – | – | 4.69 |
| N[C@@H](C[C@H]1CC(C(=O)O)=NO1)C(=O)O (racemic) | – | – | – | > 100 µM | > 100 µM | – |
| N[C@@H](C[C@@H]1CC(/C=C/C(=O)O)=NO1)C(=O)O (racemic) | > 100 µM | > 100 µM | > 100 µM | – | – | – |
| N[C@@H](C[C@@H]1CC(CCC(=O)O)=NO1)C(=O)O (racemic) | > 100 µM | > 100 µM | 13 µM | – | – | 4.91 |
| N[C@@H](C[C@H]1CC(/C=C/C(=O)O)=NO1)C(=O)O (racemic) | > 100 µM | > 100 µM | 68 µM | – | – | – |
| N[C@@H](C[C@@H]1CC(c2cccc(C(=O)O)c2)=NO1)C(=O)O (racemic) | > 100 µM | > 100 µM | 22 µM | – | – | – |
| N[C@@H](C[C@H]1CC(c2cccc(C(=O)O)c2)=NO1)C(=O)O (racemic) | > 100 µM | > 100 µM | 100 µM | – | – | – |
| N[C@@H](C[C@@H]1CC(c2ccccc2C(=O)O)=NO1)C(=O)O (racemic) | > 100 µM | > 100 µM | 3.6 µM | – | – | – |
